Values joined by “and” are separate entries in the source; they are usually repeats but may differ in a detail not shown here. Equal values may be shown once.
What was measured:
Assay in all cases: G assay PDZ-PL binding
Details in all cases: peptide 10 uM, protein 5
DLG2 #162.1 domain 2 = target: T1, DLG2 #162.1 domain 2 (Homo sapiens, UniProt Q15700, K278N)
T1 construct: made in house; host or cells: E. coli (DH5alpha, BL21 or JM109), vector pGEX-3X
In short: (§1)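 Plate ELISA: anti-GST antibody coat, BSA block, then GST/PDZ fusion (GST alone as negative control). Biotinylated PL peptide 20 uM (10 uM in G′ variant) added, 10 min 4 °C plus 20 min 25 °C; streptavidin-HRP, TMB, absorbance 450 nm.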

ZO-1 domain 1 = target: T2, ZO-1 domain 1 (Homo sapiens, UniProt Q07157)
T2 construct: made in house; host or cells: E. coli (DH5alpha, BL21 or JM109)
T2 sequence (Q07157 with tags, fused parts or gaps): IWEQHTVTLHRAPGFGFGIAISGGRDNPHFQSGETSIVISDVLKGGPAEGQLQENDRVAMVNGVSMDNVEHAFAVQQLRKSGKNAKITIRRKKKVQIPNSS
In short: as §1

INADL domain 6 = target: T3, INADL domain 6 (Homo sapiens, UniProt Q8NI35, G1085V)
T3 construct: made in house; host or cells: E. coli (DH5alpha, BL21 or JM109)
T3 sequence (Q8NI35 with tags, fused parts or gaps G1085V): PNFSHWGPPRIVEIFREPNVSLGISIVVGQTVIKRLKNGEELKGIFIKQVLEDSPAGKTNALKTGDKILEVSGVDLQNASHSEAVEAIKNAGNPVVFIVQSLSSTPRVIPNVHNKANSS
In short: as §1

ZO-1 domain 2 = target: T4, ZO-1 domain 2 (Homo sapiens, UniProt Q07157, DEL264-264)
T4 construct: made in house; host or cells: E. coli (DH5alpha, BL21 or JM109)
T4 sequence (Q07157 with tags, fused parts or gaps DEL264-264): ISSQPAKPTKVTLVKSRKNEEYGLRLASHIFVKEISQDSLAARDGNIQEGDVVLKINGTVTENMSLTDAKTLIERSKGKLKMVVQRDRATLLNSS
In short: as §1

APXL1 domain 1 = target: T5, APXL1 domain 1 (Homo sapiens, UniProt Q13796)
T5 construct: made in house; host or cells: E. coli (DH5alpha, BL21 or JM109), vector pGEX-3X
T5 sequence (Q13796 with tags, fused parts or gaps): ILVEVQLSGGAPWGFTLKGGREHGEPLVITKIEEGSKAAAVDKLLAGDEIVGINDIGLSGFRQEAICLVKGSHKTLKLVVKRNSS
In short: as §1

MUPP1 domain 13 = target: T6, MUPP1 domain 13 (Homo sapiens, UniProt O75970)
T6 construct: made in house; host or cells: E. coli (DH5alpha or BL-21)
T6 sequence (O75970 1980-2070): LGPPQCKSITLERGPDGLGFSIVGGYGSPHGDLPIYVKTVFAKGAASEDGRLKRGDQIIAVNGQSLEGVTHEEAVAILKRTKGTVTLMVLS
In short: as §1

ELFIN 1 domain 1 = target: T7, ELFIN 1 domain 1 (Homo sapiens, UniProt O00151, G21R)
T7 construct: made in house; host or cells: E. coli (DH5alpha, BL21 or JM109), vector pGEX-3X
T7 sequence (O00151 2-93 G21R): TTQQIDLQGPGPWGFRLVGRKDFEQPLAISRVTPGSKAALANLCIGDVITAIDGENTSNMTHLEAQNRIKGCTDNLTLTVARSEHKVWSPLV
In short: as §1

T1 sequence (Q15700 whole entry, looked up, the tested form differs by isoform, tags, fused parts or gaps, stated change not applied): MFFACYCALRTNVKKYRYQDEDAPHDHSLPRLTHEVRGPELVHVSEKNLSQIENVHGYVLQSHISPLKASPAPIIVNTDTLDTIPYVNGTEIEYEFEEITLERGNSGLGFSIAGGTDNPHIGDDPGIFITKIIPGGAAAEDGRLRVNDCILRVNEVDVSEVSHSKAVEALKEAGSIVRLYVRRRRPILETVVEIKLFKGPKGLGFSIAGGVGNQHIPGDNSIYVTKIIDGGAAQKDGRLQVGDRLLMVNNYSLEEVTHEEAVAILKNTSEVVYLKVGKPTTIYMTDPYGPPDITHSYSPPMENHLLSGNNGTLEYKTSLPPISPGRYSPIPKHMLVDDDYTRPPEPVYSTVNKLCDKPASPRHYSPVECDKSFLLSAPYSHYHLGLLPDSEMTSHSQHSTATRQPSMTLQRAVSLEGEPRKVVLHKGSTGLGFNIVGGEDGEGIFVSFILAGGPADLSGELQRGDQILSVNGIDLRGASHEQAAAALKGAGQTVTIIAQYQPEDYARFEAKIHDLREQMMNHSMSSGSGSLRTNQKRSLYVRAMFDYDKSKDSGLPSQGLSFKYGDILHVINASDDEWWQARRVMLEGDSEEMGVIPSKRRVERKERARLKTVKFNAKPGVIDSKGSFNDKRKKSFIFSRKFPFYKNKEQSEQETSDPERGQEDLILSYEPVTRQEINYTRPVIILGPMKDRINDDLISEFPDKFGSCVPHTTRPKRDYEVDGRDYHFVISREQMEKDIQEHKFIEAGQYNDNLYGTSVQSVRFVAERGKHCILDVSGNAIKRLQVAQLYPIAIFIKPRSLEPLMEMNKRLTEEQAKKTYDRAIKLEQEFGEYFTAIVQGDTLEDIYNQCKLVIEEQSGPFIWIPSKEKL

## 20 mer peptide corresponding to the C-terminus of HPV16 E6 (PDZ ligand), biotinylated in binding assays; ends SSRTRRETQL (SEQ ID NO: 13) [HPV E6 #16]
DLG2 #162.1 domain 2; A450 nm
  Ave OD: 0.908 and 0.853
DLG2 #162.1 domain 2; vs GST only well
  OD S/N: 3.87 and 3.05
ZO-1 domain 1; A450 nm
  Ave OD: 0.4125 and 0.5215
ZO-1 domain 1; vs GST only well
  OD S/N: 1.83 and 2.83
INADL domain 6; A450 nm
  Ave OD: 0.518
INADL domain 6; vs GST only well
  OD S/N: 3.07
ZO-1 domain 2; A450 nm
  Ave OD: 0.518
ZO-1 domain 2; vs GST only well
  OD S/N: 3.02
APXL1 domain 1; A450 nm
  Ave OD: 0.4605 and 0.708
APXL1 domain 1; vs GST only well
  OD S/N: 3.14 and 2.96
MUPP1 domain 13; A450 nm
  Ave OD: 0.4355 and 0.4115
MUPP1 domain 13; vs GST only well
  OD S/N: 1.56 and 1.75
ELFIN 1 domain 1; A450 nm
  Ave OD: 0.66
ELFIN 1 domain 1; vs GST only well
  OD S/N: 3.39
